Reference: patent US20240043448A1, “Small Molecule Inhibitors of KRAS G12C Mutant” (Merck Sharp & Dohme LLC, priority 2019, published 2024)
Read-outs that look alike come from different tables or passages of the source.

Key:
[1] = molecular target: Biotinylated KRAS G12C protein (Homo sapiens (Human), UniProt P01116, C118S/C51S/C80L/G12C); assay: SOS-catalyzed nucleotide exchange assay (TR-FRET); assay type: biochemical; settings: in vitro apparent potency; preincubation time of 60 minutes prior to addition of SOS
Biotinylated KRAS G12C protein, sequence (P01116 other isoform, or with tags, fused parts or gaps, stated change not applied): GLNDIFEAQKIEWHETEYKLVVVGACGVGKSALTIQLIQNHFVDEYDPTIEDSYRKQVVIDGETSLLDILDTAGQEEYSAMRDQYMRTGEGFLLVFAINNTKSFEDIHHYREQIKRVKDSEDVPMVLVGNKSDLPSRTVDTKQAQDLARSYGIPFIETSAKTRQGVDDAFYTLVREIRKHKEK
Method in brief: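 Biotinylated KRAS G12C preloaded with Bodipy-GDP and Tb-streptavidin, then incubated with compound (10-point, 3-fold series) for 60 min at RT. Exchange started with SOS and GTP for 60 min. TR-FRET 520/495 ratio normalised to DMSO and saturating-inhibitor controls; four-parameter fit.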

phospho-ERK = assay: Cellular phospho-ERK assay; assay type: cell-based; settings: NCI-H358 cells, 2 hour incubation, ratio of p-Erk vs total Erk, read-out: IC50 (nM) pERK (Cell)
Method in brief: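 NCI-H358 cells seeded overnight, then exposed to compound dose-response titrations for 2 hours at 37° C. in RPMI. Lysates assayed by AlphaLISA SureFire Ultra multiplex for p-Erk and total Erk; ratio p-Erk/total Erk used as readout, IC50 from 4-parameter logistic fit.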

| SMILES | IC50 [1] [nM] | IC50 (phospho-ERK; Homo sapiens, NCI-H358, 2 h) [nM] | IC50 (phospho-ERK) [nM] |
| --- | --- | --- | --- |
| C=CC(=O)N1C[C@H](C)N(c2nc(=O)n3c4nc(c(F)cc24)-c2c(F)ccc(F)c2OCCOc2ccnc(Cl)c2-3)C[C@H]1C [Example 87, 6-chloro-2-[(2S,5R)-2,5-dimethyl-4-(prop-2-enoyl)piperazin-1-yl]-14,17,20-trifluoro-11,12-dihydro-4H-1,18-ethenopyrido[4,3-e]pyrimido[1,6-g][1,4,7,9] benzodioxadiazacyclododecin-4-one] | 461 | 3210 | – |
| C=CC(=O)N1C[C@H](C)N(c2nc(=O)n3c4nc(c(F)cc24)-c2c(F)cccc2OCCCCc2cnc(C(C)C)c-3c2C)C[C@H]1C [Example 88, 2-[(2S,5R)-2,5-dimethyl-4-(prop-2-enoyl)piperazin-1-yl]-19,22-difluoro-24-methyl-7-(propan-2-yl)-11,12,13,14-tetrahydro-4H-1,20-etheno-6,10-(metheno)pyrimido[1,6-k][1,8,11,13]benzoxatriazacyclohexadecin-4-one] | 1.1 | – | 96 |
| C=CC(=O)N1C[C@H](C)N(c2nc(=O)n3c4nc(c(F)cc24)-c2c(ccc(F)c2F)OCCC(C)c2ccnc(C(C)C)c2-3)C[C@H]1C (stereo partly drawn) [Example 90, 2-[(2S,5R)-2,5-dimethyl-4-(prop-2-enoyl)piperazin-1-yl]-16,17,20-trifluoro-10-methyl-6-(propan-2-yl)-11,12-dihydro-4H,10H-1,18-ethenopyrido[4,3-e]pyrimido[1,6-g][1,7,9]benzoxadiazacyclododecin-4-one] | 1.4 | 6.8 | – |
| C=CC(=O)N1C[C@H](C)N(c2nc(=O)n3c4nc(c(F)cc24)-c2c(ccc(F)c2F)OCC2(CC2)Cc2ccnc(C(C)C)c2-3)C[C@H]1C [Example 92, 2′-[(2S,5R)-2,5-dimethyl-4-(prop-2-enoyl)piperazin-1-yl]-16′,17′,20′-trifluoro-6′-(propan-2-yl)-4′H,10′H,12′H-spiro[cyclopropane-1,11′-[13]oxa[3,5,7,19]tetraaza[1,18]ethenopyrido [4,3-e]pyrimido[1,6-g][1,7,9]benzoxadiazacyclododecin]-4′-one] | 0.71 | 12 | – |
| C=CC(=O)N1C[C@H](C)N(c2nc(=O)n3c4cc(c(F)cc24)-c2c(F)ccc(F)c2OCCOc2ccnc(C(C)C)c2-3)C[C@H]1C [Example 93, 2-[(2S,5R)-2,5-dimethyl-4-(prop-2-enoyl)piperazin-1-yl]-14,17,20-trifluoro-6-(propan-2-yl)-11,12-dihydro-4H-1,18-(ethanediylidene)pyrido[4,3-e]pyrimido[1,6-g][1,4,7]benzodioxazacyclododecin-4-one] | 31 | 572 | – |
| C=CC(=O)N1C[C@H](C)N(c2nc(=O)n3c4nc(c(F)cc24)-c2c(F)ccc(F)c2OC[C@H](C)Oc2ccnc(C(C)C)c2-3)C[C@H]1C [Example 94, (11S)-2-[(2S,5R)-2,5-dimethyl-4-(prop-2-enoyl)piperazin-1-yl]-14,17,20-trifluoro-11-methyl-6-(propan-2-yl)-11,12-dihydro-4H-1,18-ethenopyrido[4,3-e]pyrimido[1,6-g][1,4,7,9]benzodioxadiazacyclododecin-4-one] | 3.4 | – | 42 |
| C=CC(=O)N1C[C@H](C)N(c2nc(=O)n3c4nc(c(F)cc24)-c2c(F)ccc(F)c2OCCCc2ccnc(C(C)C)c2-3)C[C@H]1C [Example 95, 2-[(2S,5R)-2,5-dimethyl-4-(prop-2-enoyl)piperazin-1-yl]-14,17,20-trifluoro-6-(propan-2-yl)-11,12-dihydro-4H,10H-1,18-(ethanediylidene)pyrido[4,3-e]pyrimido[1,6-g][1,7,9]benzoxadiazacyclododecin-4-one] | 2.5 | 15 | – |
| C=CC(=O)N1C[C@H](C)N(c2nc(=O)n3c4nc(c(F)cc24)-c2c(F)cccc2OCCc2ccnc(C(C)C)c2-3)C[C@H]1C [Example 96, 2-[(2S,5R)-2,5-dimethyl-4-(prop-2-enoyl)piperazin-1-yl]-16,19-difluoro-6-(propan-2-yl)-10,11-dihydro-4H-1,17-ethenopyrido[4,3-d]pyrimido[1,6-f][1,6,8]benzoxadiazacycloundecin-4-one] | 3.8 | 32 | – |
| C=CC(=O)N1CCN(c2nc(=O)n3c4nc(c(F)cc24)-c2c(ccc(F)c2F)OCC(F)(F)CCc2ccnc(C(C)C)c2-3)[C@@H](C)C1 [Example 97, 12,12,17,18,21-pentafluoro-2-[(2S)-2-methyl-4-(prop-2-enoyl)piperazin-1-yl]-6-(propan-2-yl)-10,11,12,13-tetrahydro-4H-1,19-(ethanediylidene)pyrido[4,3-f]pyrimido[1,6-h][1,8,10]benzoxadiazacyclotridecin-4-one] | 0.56 | – | 3 |
| C=CC(=O)N1CCN(c2nc(=O)n3c4nc(c(F)cc24)-c2c(F)cccc2OCCCc2ccnc(C(C)C)c2-3)[C@@H](CC)C1 [Example 98, 2-[(25)-2-ethyl-4-(prop-2-enoyl)piperazin-1-yl]-17,20-difluoro-6-(propan-2-yl)-11,12-dihydro-4H,10H-1,18-(ethanediylidene)pyrido[4,3-e]pyrimido[1,6-g][1,7,9] benzoxadiazacyclododecin-4-one] | 11 | 49 | – |
| C=CC(=O)N1CCN(c2nc(=O)n3c4nc(c(F)cc24)-c2c(F)cccc2OCCCc2ccnc(C(C)C)c2-3)C(C(F)F)C1 (centres unmarked) [Example 99, 2-[2-(difluoromethyl)-4-(prop-2-enoyl)piperazin-1-yl]-17,20-difluoro-6-(propan-2-yl)-11,12-dihydro-4H,10H-1,18-ethenopyrido[4,3-e]pyrimido[1,6-g][1,7,9]benzoxadiazacyclododecin-4-one] | 12 | 22 | – |
| C=CC(=O)N1CCN(c2nc(=O)n3c4nc(c(F)cc24)-c2c(F)cccc2OCCCc2ccnc(C(C)C)c2-3)C(Cc2ccccc2)C1 (centres unmarked) [Example 100, 2-[2-benzyl-4-(prop-2-enoyl)piperazin-1-yl]-17,20-difluoro-6-(propan-2-yl)-11,12-dihydro-4H,10H-1,18-ethenopyrido[4,3-e]pyrimido[1,6-g][1,7,9]benzoxadiazacyclododecin-4-one] | 25 | 508 | – |
| C=CC(=O)N1CCN(c2nc(=O)n3c4nc(c(F)cc24)-c2c(F)cccc2OCCCc2ccnc(C(C)C)c2-3)C(C)(C)C1 [Example 102, 2-[2,2-dimethyl-4-(prop-2-enoyl)piperazin-1-yl]-17,20-difluoro-6-(propan-2-yl)-11,12-dihydro-4H,10H-1,18-ethenopyrido[4,3-e]pyrimido[1,6-g][1,7,9] benzoxadiazacyclododecin-4-one] | 35 | 149 | – |
| C=CC(=O)N1CCN(c2nc(=O)n3c4nc(c(F)cc24)-c2c(F)cccc2OCCCc2ccnc(C(C)C)c2-3)C[C@@H]1CC [Example 103, 2-[(3S)-3-ethyl-4-(prop-2-enoyl)piperazin-1-yl]-17,20-difluoro-6-(propan-2-yl)-11,12-dihydro-4H,10H-1,18-ethenopyrido[4,3-e]pyrimido[1,6-g][1,7,9] benzoxadiazacyclododecin-4-one] | 107 | 847 | – |
| C=CC(=O)N1C[C@@H]2C[C@H]1CN2c1nc(=O)n2c3nc(c(F)cc13)-c1c(F)cccc1OCCCCc1ccnc(C(C)C)c1-2 [Example 104, 18,21-difluoro-6-(propan-2-yl)-2-[(1S,4S)-5-(prop-2-enoyl)-2,5-diazabicyclo[2.2.1]heptan-2-yl]-10,11,12,13-tetrahydro-4H-1,19-ethenopyrido[4,3-f]pyrimido[1,6-h][1,8,10]benzoxadiazacyclotridecin-4-one] | 1470 | 8850 | – |
| C=CC(=O)N1CC2CCC1CN2c1nc(=O)n2c3nc(c(F)cc13)-c1c(F)cccc1OCCCc1ccnc(C(C)C)c1-2 (centres unmarked) [Example 105, 17,20-difluoro-6-(propan-2-yl)-2-[5-(prop-2-enoyl)-2,5-diazabicyclo[2.2.2]octan-2-yl]-11,12-dihydro-4H,10H-1,18-ethenopyrido[4,3-e]pyrimido[1,6-g][1,7,9]benzoxadiazacyclododecin-4-one] | 1910 | 3600 | – |
| C=CC(=O)N1CC2CCC1CN2c1nc(=O)n2c3nc(c(F)cc13)-c1c(F)cccc1OCCCc1ccnc(C(C)C)c1-2 (centres unmarked) [Example 106, 17,20-difluoro-4-oxo-6-(propan-2-yl)-2-[5-(prop-2-enoyl)-2,5-diazabicyclo[2.2.2]octan-2-yl]-11,12-dihydro-4H,10H-1,18-ethenopyrido[4,3-e]pyrimido[1,6-g][1,7,9] benzoxadiazacyclododecin-4-one] | 2550 | – | 5620 |
| C=CC(=O)N1CC(C)N(c2nc(=O)n3c4nc(c(F)cc24)-c2c(F)ccc4cnn(c24)CCCCc2ccnc(C(C)C)c2-3)CC1C [Example 107, 2-[(2S,5R)-2,5-dimethyl-4-(prop-2-enoyl)piperazin-1-yl]-19,22-difluoro-6-(propan-2-yl)-10,11,12,13-tetrahydro-4H-1,20-(ethanediylidene)pyrido[4′,3′:12,13]pyrimido[1′,6′:1,2][1,3,7]triazacyclotridecino[5,6,7-hi]indazol-4-one] | 10 | – | 20 |
| C=CC(=O)N1C[C@H](C)N(c2nc(=O)n3c4nc(c(F)cc24)-c2cc(F)cc4cnn(c24)CCCCc2ccnc(C(C)C)c2-3)C[C@H]1C [Example 108, 2-[(2S,5R)-2,5-dimethyl-4-(prop-2-enoyl)piperazin-1-yl]-18,22-difluoro-6-(propan-2-yl)-10,11,12,13-tetrahydro-4H-1,20-(ethanediylidene)pyrido [4′,3′:12,13]pyrimido[1′,6′:1,2][1,3,7] triazacyclotridecino[5,6,7-hi]indazol-4-one] | 20 | 68 | – |
